Where a SMILES comes first, the peptide text is derived from it. The star is where a group is joined. NOTA = O=C(O)CN1CCN(CC(=O)O)CCN(CC(=O)*)CC1; AEEA = NCCOCCOCC(=O)O
Tests used:
[1] = In vitro stability in normal saline (RP-HPLC); format: physicochemical; conditions: 37°C, 1, 2, 4 and 6 h
Procedure: The in vitro and in vivo stability of [^18F]F-FGFR1 was evaluated by RP-HPLC analysis. […] The radiochemical purity of the final compounds was determined by RP-HPLC.

[2] = In vivo radiochemical stability, urine of xenograft nude mice (RP-HPLC); conditions: urine of xenograft nude mice 60 min after injection of 7.4 MBq; one peak at 5.7 min; fluorine-18 at 4 min
Procedure: For the in vivo radiochemical stability experiment, urine samples were obtained from xenograft nude mice 60 min after injection of 150 µl (7.4 MBq, 2.53 GBq/μmol) [^18F]F-FGFR1 and analyzed by RP-HPLC.

[3] = system: RT-112 cells (FGFR1-high expression); assay: Cellular uptake and blocking study; format: cell-based, human
Procedure: RT-112, A549, SNU-16 and Calu-3 cells were cultured at a density of 1*10^5 cells per well in 24-well plates the day before cellular uptake experiments. Cells were rinsed twice with 1000 µl of phosphate-buffered saline (PBS) (BI, Israel), followed by 1000 µl of growth medium. Then, 30 µl (111 KBq, 1.81-2.53 GBq/μmol) of [^18F]F-FGFR1 was added to each well, and the cells were incubated with the peptide for 15, 30, 60 and 120 min. At each cutoff time, 6 wells of supernatant were collected. The collected wells were washed twice with 1000 µl of PBS. Radioactivity counts were marked as Cout. […] After 500 µl of trypsin-EDTA digestion of the adherent cells and washed twice with 1000 µl of PBS, the collected cells were defined as Cin. Radioactivity was counted with an automatic γ counter. The formula for the cell uptake rate was as follows: Cin/(Cin + Cout).
To determine the specific binding of [^18F]F-FGFR1 with FGFR1 on the cell surface, 200-fold unlabeled peptide (220 µg) and 30 µl of [^18F]F-FGFR1 (111 KBq) were added to RT-112 cells at the same time. The supernatants were removed after 120 min of incubation. The subsequent steps of cell collection and radioactivity detection were performed as described above. The cell uptake rate was calculated by Cin/(Cin + Cout).

[4] = Micro-PET/CT biodistribution in SNU-16 xenografts; format: in vivo, BALB/c nude mice; conditions: female, BALB/c nude, mouse, iv, total radioactivity, 11.1 MBq tail vein, micro-PET/CT ROI, mean ± SD; for tissue uptake at 0.5 h: 30 min post-injection; for tissue uptake at 1 h: 60 min post-injection; for tissue uptake at 2 h: 120 min post-injection
Procedure: (§1) All animal experiments were carried out in accordance with the Laboratory Animal Ethical Review of Animal Guidelines of China. BALB/c nude mice (sex, female; age, 4 weeks, body weight range, 19-21 g; China) were used for this study. Four cell lines (2*10^7 cells/nude mouse) were subcutaneously injected into the right forelimb to induce solid tumors. All xenograft nude mice were housed in laminar flow cabinets in a specific pathogen-free (SPF) environment and were provided ad libitum access to food and water at the Laboratory Animal Center of the Fourth Hospital of Hebei Medical University (China). The indication for micro-PET/CT imaging was xenografts with a tumor volume of 50-130 mm^3. All animal experiments strictly adhered to the Principles of the Laboratory Animal Ethical Committee of the Fourth Hospital Hebei Medical University (No. 2020016).
(§2) Xenograft mice (n=5) were fastly injected of 200 µl of [^18F]F-FGFR1 (11.1 MBq) through tail vein. For the in vivo blocking study, RT-112 (FGFR1-high expression) tumor-bearing mice (n = 5) were injected with a tracer that was mixed with 200-fold (1.58 mg) unlabeled peptide to saturate the receptors in the tumors. Mice were anesthetized via 3% isoflurane inhalation (RWD Life Science Inc. China) for induction and 2% isoflurane inhalation for maintenance. Micro-PET/CT imaging was performed on a micro-PET/SPECT/CT machine (NOVEL MEDICAL Equipment Ltd. China). Whole-body scans were performed 30, 60 and 120 min after tracer administration. The CT scanning parameters were 80 kV, 0.5 mA, 2000 ms/frames, and 360 frames; the images were reconstructed with a 512*512 matrix and a slice thickness of 0.18 mm. PET images were acquired with a 140*140 matrix and 10 min of total acquisition time. Reconstructed images were processed with the comprehensive image analysis software Pmod v4.201 (PMOD Technologies LLC. Switzerland). The biodistribution of the major organs (brain, heart, lung, liver, kidney, bone and muscle) and tumor were analyzed by manually outlining the regions of interest (ROIs) of the entire organs and tissue at each time point of the micro-PET/CT scan. The radioactivity accumulated in bone and muscle was measured in the limbs without xenograft tumors.

[5] = Micro-PET/CT biodistribution in Calu-3 xenografts; format: in vivo, BALB/c nude mice; conditions: female, BALB/c nude, mouse, iv, total radioactivity, 11.1 MBq tail vein, micro-PET/CT ROI, mean ± SD; for tissue uptake at 0.5 h: 30 min post-injection; for tissue uptake at 1 h: 60 min post-injection; for tissue uptake at 2 h: 120 min post-injection
Procedure: as §1, §2

[6] = bone, n=5, read-out: Biodistribution, Bone
[7] = brain, n=5, read-out: Biodistribution, Brain
[8] = heart, n=5, read-out: Biodistribution, Heart
[9] = kidney, n=5, read-out: Biodistribution, Kidney
[10] = liver, n=5, read-out: Biodistribution, Liver
[11] = lung, n=5, read-out: Biodistribution, Lung
[12] = muscle, n=5, read-out: Biodistribution, Muscle
[13] = tumor, n=5, read-out: Biodistribution, Tumor

Radiochemical purity after incubation (in vitro stability) [1]: exceeded 90%
In vivo radiochemical stability (RP-HPLC of urine) [2]: no peak corresponded to fluorine-18
tissue uptake at 0.5 h [4, 6]: 0.38 ± 0.1 %ID/g
tissue uptake at 1 h [4, 6]: 0.37 ± 0.05 %ID/g
tissue uptake at 2 h [4, 6]: 0.41 ± 0.02 %ID/g
tissue uptake at 0.5 h [4, 7]: 0.56 ± 0.06 %ID/g
tissue uptake at 1 h [4, 7]: 0.6 ± 0.07 %ID/g
tissue uptake at 2 h [4, 7]: 0.56 ± 0.1 %ID/g
tissue uptake at 0.5 h [4, 8]: 0.7 ± 0.09 %ID/g
tissue uptake at 1 h [4, 8]: 0.62 ± 0.09 %ID/g
tissue uptake at 2 h [4, 8]: 0.55 ± 0.06 %ID/g
tissue uptake at 0.5 h [4, 9]: 8.04 ± 0.97 %ID/g
tissue uptake at 1 h [4, 9]: 7.43 ± 0.83 %ID/g
tissue uptake at 2 h [4, 9]: 4.23 ± 0.7 %ID/g
tissue uptake at 0.5 h [4, 10]: 1.54 ± 0.11 %ID/g
tissue uptake at 1 h [4, 10]: 1.57 ± 0.12 %ID/g
tissue uptake at 2 h [4, 10]: 1.45 ± 0.1 %ID/g
tissue uptake at 0.5 h [4, 11]: 0.67 ± 0.08 %ID/g
tissue uptake at 1 h [4, 11]: 0.6 ± 0.03 %ID/g
tissue uptake at 2 h [4, 11]: 0.46 ± 0.09 %ID/g
tissue uptake at 0.5 h [4, 12]: 0.27 ± 0.06 %ID/g
tissue uptake at 1 h [4, 12]: 0.27 ± 0.03 %ID/g
tissue uptake at 2 h [4, 12]: 0.31 ± 0.02 %ID/g
tissue uptake at 0.5 h [4, 13]: 0.66 ± 0.05 %ID/g
tissue uptake at 1 h [4, 13]: 0.6 ± 0.06 %ID/g
tissue uptake at 2 h [4, 13]: 0.45 ± 0.04 %ID/g
tissue uptake at 0.5 h [5, 6]: 0.42 ± 0.05 %ID/g
tissue uptake at 1 h [5, 6]: 0.36 ± 0.05 %ID/g
tissue uptake at 2 h [5, 6]: 0.37 ± 0.04 %ID/g
tissue uptake at 0.5 h [5, 7]: 0.6 ± 0.04 %ID/g
tissue uptake at 1 h [5, 7]: 0.66 ± 0.06 %ID/g
tissue uptake at 2 h [5, 7]: 0.67 ± 0.18 %ID/g
tissue uptake at 0.5 h [5, 8]: 0.79 ± 0.08 %ID/g
tissue uptake at 1 h [5, 8]: 0.8 ± 0.07 %ID/g
tissue uptake at 2 h [5, 8]: 0.79 ± 0.17 %ID/g
tissue uptake at 0.5 h [5, 9]: 8.47 ± 0.83 %ID/g
tissue uptake at 1 h [5, 9]: 7.48 ± 0.6 %ID/g
tissue uptake at 2 h [5, 9]: 3.02 ± 0.69 %ID/g
tissue uptake at 0.5 h [5, 10]: 1.4 ± 0.07 %ID/g
tissue uptake at 1 h [5, 10]: 1.54 ± 0.12 %ID/g
tissue uptake at 2 h [5, 10]: 1.33 ± 0.17 %ID/g
tissue uptake at 0.5 h [5, 11]: 0.62 ± 0.08 %ID/g
tissue uptake at 1 h [5, 11]: 0.54 ± 0.06 %ID/g
tissue uptake at 2 h [5, 11]: 0.48 ± 0.04 %ID/g
tissue uptake at 0.5 h [5, 12]: 0.28 ± 0.04 %ID/g
tissue uptake at 1 h [5, 12]: 0.25 ± 0.03 %ID/g
tissue uptake at 2 h [5, 12]: 0.3 ± 0.04 %ID/g
tissue uptake at 0.5 h [5, 13]: 0.59 ± 0.08 %ID/g
tissue uptake at 1 h [5, 13]: 0.58 ± 0.06 %ID/g
tissue uptake at 2 h [5, 13]: 0.43 ± 0.03 %ID/g
Structure (SMILES): CC(C)C[C@H](NC(=O)[C@H](CO)NC(=O)[C@H](CCCCN)NC(=O)[C@H](Cc1c[nH]c2ccccc12)NC(=O)[C@H](CCC(=O)O)NC(=O)[C@H](C)NC(=O)[C@H](CCCCN)NC(=O)COCCOCCNC(=O)CN1CCN(CC(=O)O)CCN(CC(=O)O)CC1)C(=O)NCC(=O)N[C@@H](CCC(=O)O)C(=O)N[C@@H](CCC(=O)O)C(=O)N[C@@H](C)C(=O)N[C@@H](Cc1c[nH]c2ccccc12)C(=O)N[C@@H](Cc1c[nH]cn1)C(=O)N[C@@H](CO)C(=O)N[C@@H](CCCCN)C(=O)O [[^18F]F-FGFR1] ({NOTA-AEEA}-KAEWKSLGEEAWHSK-OH; N-terminus and C-terminus assumed)
Cellular uptake in RT-112 versus A549, SNU-16 and Calu-3 cells ([3]; 15, 30, 60 and 120 min incubation, P < 0.001, n = 6): consistently higher in RT-112 cell line
Cell uptake rate Cin/(Cin + Cout), blocked ([3]; RT-112 cells, 111 KBq tracer with 200-fold excess unlabeled peptide (220 µg), 120 min, mean ± SD, n = 6): 0.24 ± 0.05
Cell uptake rate Cin/(Cin + Cout) ([3]; RT-112 cells, 111 KBq tracer, 120 min incubation, γ counter, mean ± SD, n = 6): 5.11 ± 0.63

Reference: paper PMC10174317, “^18F-labeled FGFR1 peptide: a new PET probe for subtype FGFR1 receptor imaging” (Frontiers in Oncology, 2023)
